# Assay results published in ChEMBL document CHEMBL1134590, “Determination of the binding specificity of an integral membrane protein by saturation transfer difference NMR: RGD peptide ligands binding to integrin alphaIIbbeta3” (J Med Chem, 2001).
# Biological target: Integrin alpha-IIb/beta-3 (Homo sapiens, UniProt P05106+P08514)
# Assay: Inhibition of integrin alphaIIb-beta3 binding
# Assay type: protein-complex assay
# Integrin alpha-IIb/beta-3, sequence (P05106 27-788 limits assumed): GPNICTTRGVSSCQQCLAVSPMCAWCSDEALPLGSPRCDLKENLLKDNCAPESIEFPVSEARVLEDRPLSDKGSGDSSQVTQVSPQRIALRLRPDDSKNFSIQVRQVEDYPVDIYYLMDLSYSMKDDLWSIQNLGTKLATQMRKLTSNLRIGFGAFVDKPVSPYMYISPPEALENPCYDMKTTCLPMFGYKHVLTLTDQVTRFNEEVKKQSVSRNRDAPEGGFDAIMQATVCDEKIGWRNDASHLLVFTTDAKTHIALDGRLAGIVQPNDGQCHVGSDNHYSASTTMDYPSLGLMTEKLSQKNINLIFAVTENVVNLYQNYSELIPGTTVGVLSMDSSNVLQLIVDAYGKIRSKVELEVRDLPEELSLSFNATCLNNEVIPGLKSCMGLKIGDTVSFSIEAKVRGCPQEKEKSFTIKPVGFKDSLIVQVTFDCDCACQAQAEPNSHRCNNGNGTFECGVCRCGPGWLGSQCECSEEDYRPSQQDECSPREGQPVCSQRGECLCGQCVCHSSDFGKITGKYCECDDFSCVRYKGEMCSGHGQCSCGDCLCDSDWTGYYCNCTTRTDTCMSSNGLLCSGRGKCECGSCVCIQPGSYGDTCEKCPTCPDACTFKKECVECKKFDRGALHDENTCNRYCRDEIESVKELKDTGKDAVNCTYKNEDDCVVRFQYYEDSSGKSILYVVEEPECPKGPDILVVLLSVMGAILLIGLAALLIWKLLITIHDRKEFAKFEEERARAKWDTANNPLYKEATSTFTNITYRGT
# Integrin alpha-IIb/beta-3, sequence (P08514 32-887 limits assumed): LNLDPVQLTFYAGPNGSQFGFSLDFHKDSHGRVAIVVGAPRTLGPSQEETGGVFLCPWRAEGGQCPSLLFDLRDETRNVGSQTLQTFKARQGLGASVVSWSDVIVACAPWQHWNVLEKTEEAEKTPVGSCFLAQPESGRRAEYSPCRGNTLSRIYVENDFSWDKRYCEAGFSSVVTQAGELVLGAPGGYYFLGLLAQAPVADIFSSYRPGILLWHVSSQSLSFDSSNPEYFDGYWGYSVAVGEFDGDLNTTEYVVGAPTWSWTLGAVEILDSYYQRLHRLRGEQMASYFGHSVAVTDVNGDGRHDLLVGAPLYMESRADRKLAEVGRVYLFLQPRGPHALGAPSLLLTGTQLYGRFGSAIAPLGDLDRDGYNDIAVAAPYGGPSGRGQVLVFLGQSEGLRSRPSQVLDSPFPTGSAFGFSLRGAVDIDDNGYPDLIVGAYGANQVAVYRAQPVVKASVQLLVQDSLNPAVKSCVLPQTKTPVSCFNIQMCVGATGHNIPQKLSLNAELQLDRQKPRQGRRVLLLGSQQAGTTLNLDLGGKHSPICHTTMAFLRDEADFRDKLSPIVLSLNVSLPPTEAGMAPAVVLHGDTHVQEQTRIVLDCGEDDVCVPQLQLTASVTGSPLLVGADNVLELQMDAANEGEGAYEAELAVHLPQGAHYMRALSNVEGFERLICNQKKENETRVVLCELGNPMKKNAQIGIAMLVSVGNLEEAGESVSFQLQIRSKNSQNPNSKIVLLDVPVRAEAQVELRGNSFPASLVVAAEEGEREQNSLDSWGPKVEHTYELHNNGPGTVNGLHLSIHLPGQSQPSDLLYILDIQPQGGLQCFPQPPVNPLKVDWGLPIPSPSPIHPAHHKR
# Integrin alpha-IIb/beta-3, sequence (P08514 891-1039 limits assumed): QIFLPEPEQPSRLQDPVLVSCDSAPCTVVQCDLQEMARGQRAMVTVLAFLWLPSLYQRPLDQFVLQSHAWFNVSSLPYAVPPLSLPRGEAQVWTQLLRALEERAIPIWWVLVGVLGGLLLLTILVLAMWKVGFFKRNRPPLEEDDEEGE
structure (smiles),measurement,value
N=C(N)NCCC[C@H](N)C(=O)NCC(=O)N[C@@H](CC(=O)O)C(=O)O,IC50,> 1000 µM
